| Structure (SMILES) | melting point |
| --- | --- |
| COc1ccc(CN2CCN(C(=O)c3cc4cc(Oc5cc(C)c(NC(=O)c6ccc(C(F)(F)F)cc6)cn5)ccc4n3C)CC2)cc1.O=C(O)C(=O)O [Example 433, N-(6-{2-[4-(4-Methoxybenzyl)piperazine-1-carbonyl]-1-methyl-1H-indol-5-yloxy}-4-methylpyridin-3-yl)-4-trifluoromethylbenzamide oxalate] | 144 to 147 °C |
| CC(C)Oc1ccc(CN2CCN(C(=O)c3cc4ccc(Oc5ccc(NC(=O)c6ccc(C(F)(F)F)cc6F)cn5)cc4n3C)CC2)cc1.Cl | 267.6 to 268.2 °C |
| Br.CC(C)c1ccc(CN2CCN(C(=O)c3cc4ccc(Oc5ccc(N(C)C(=O)c6ccc(C(F)(F)F)cc6)cn5)cc4n3C)CC2)cc1 [Example 429, N-(6-{2-[4-(4-Isopropylbenzyl)piperazine-1-carbonyl]-1-methyl-1H-indol-6-yloxy}pyridin-3-yl)-N-methyl-4-trifluoromethylbenzamide hydrobromide] | 255 to 258 °C |
| COc1ccc(C(=O)N2CCN(C(=O)c3cc4cc(Oc5ccc(N(C)C(=O)c6ccc(C(F)(F)F)cc6)cn5)ccc4n3C)CC2)cc1 [Example 241, N-(6-{2-[4-(4-Methoxybenzoyl)piperazine-1-carbonyl]-1-methyl-1H-indol-5-yloxy}pyridin-3-yl)-N-methyl-4-trifluoromethylbenzamide] | 126 to 128 °C |
| COc1ccc(CN2CCN(C(=O)c3cc4cc(Oc5ccc(N(C)C(=O)c6ccc(OC(F)(F)F)cc6)cn5)ccc4n3C)CC2)cc1.O=C(O)/C=C\C(=O)O [Example 18, N-(6-{2-[4-(4-Methoxybenzyl)piperazine-1-carbonyl]-1-methyl-1H-indol-5-yloxy}pyridin-3-yl)-N-methyl-4-trifluoromethoxybenzamide maleate] | 147 to 148 °C |
| Cc1ccc(C(=O)N(C)c2ccc(Oc3ccc4cc(C(=O)N5CCN(Cc6ccc(OC(F)F)cc6)CC5)n(C)c4c3)nc2)cc1 [Example 276, N-(6-{2-[4-(4-Difluoromethoxybenzyl)piperazine-1-carbonyl]-1-methyl-1H-indol-6-yloxy}pyridin-3-yl)-4,N-dimethylbenzamide] | 140.1 to 141.3 °C |
| Cc1cc(Oc2ccc3cc(C(=O)N4CCN(Cc5ccc(OC(C)C)cc5)CC4)n(C)c3c2)ncc1N(C)S(=O)(=O)c1ccc(Cl)c(Cl)c1 [Example 313, 3,4-Dichloro-N-(6-{2-[4-(4-isopropoxybenzyl)piperazine-1-carbonyl]-1-methyl-1H-indol-6-yloxy}-4-methylpyridin-3-yl)-N-methylbenzenesulfonamide] | 151 to 151.6 °C |
| CN(c1ccc(Oc2ccc3cc(C(=O)N4CCN(Cc5ccc(OCC(F)(F)F)cc5)CC4)n(C)c3c2)nc1)S(=O)(=O)CC(F)(F)F.Cl | 243.4 to 244.4 °C |
| Br.CCCOc1ccc(CN2CCN(C(=O)c3cc4ccc(Oc5ccc(NS(=O)(=O)c6ccc(C(F)(F)F)cc6)cn5)cc4n3C)CC2)cc1 [Example 511, N-(6-{1-Methyl-2-[4-(4-propoxybenzyl)piperazine-1-carbonyl]-1H-indol-6-yloxy}pyridin-3-yl)-4-trifluoromethylbenzenesulfonamide hydrobromide] | 223.7 to 224.8 °C |
| Cl.Cn1c(C(=O)N2CCN(Cc3ccc(OC(CF)CF)cc3)CC2)cc2ccc(Oc3ccc(NC(=O)c4ccc(C(F)(F)F)cc4F)cn3)cc21 | 267.3 to 267.7 °C |
| Br.Cn1c(C(=O)N2CCN(Cc3ccc4c(c3)OCO4)CC2)cc2ccc(Oc3ccc(NC(=O)c4ccc(Cl)c(Cl)c4)cn3)cc21 [Example 257, N-{6-[2-(4-Benzo[1,3]dioxol-5-ylmethylpiperazine-1-carbonyl)-1-methyl-1H-indol-6-yloxy]pyridin-3-yl}-3,4-dichlorobenzamide hydrobromide] | 241.3 to 243.9 °C |
| CC(C)CN1CCN(C(=O)c2cc3ccc(Oc4ccc(N(C)C(=O)c5ccc(C(F)(F)F)cc5)cn4)cc3n2C)CC1.Cl | 253.1 to 254.5 °C |
| Br.COc1ccc(CN2CCN(C(=O)c3cc4cc(Oc5ccc(NC(=O)c6ccc(OC(F)(F)F)cc6)cn5)ccc4n3C)CC2)cc1 [Example 17, N-(6-{2-[4-(4-Methoxybenzyl)piperazine-1-carbonyl]-1-methyl-1H-indol-5-yloxy}pyridin-3-yl)-4-trifluoromethoxybenzamide hydrobromide] | 226 to 227 °C |
| COc1ccccc1CN1CCN(C(=O)c2cc3cc(Oc4ccc(N(C)C(=O)c5ccc(C(F)(F)F)cc5)cn4)ccc3n2C)CC1.O=C(O)C(=O)O [Example 355, N-(6-{2-[4-(2-Methoxybenzyl)piperazine-1-carbonyl]-1-methyl-1H-indol-5-yloxy}pyridin-3-yl)-N-methyl-4-trifluoromethylbenzamide oxalate] | 140 to 142 °C |
| CN(C(=O)c1ccc(C(F)(F)F)cc1O)c1ccc(Oc2ccc3c(c2)cc(C(=O)N2CCN(Cc4ccc(OC(F)F)cc4)CC2)n3C)nc1.O=C(O)C(=O)O [Example 594, N-(6-{2-[4-(4-Difluoromethoxybenzyl)piperazine-1-carbonyl]-1-methyl-1H-indol-5-yloxy}pyridin-3-yl)-2-hydroxy-N-methyl-4-tri-fluoromethylbenzamide oxalate] | 155 to 160 °C |
| COc1ccc(CN2CCN(C(=O)c3cc4cc(Oc5ccc(N(C)C(=O)c6ccc(C(F)(F)F)cc6)cn5)ccc4n3C)CC2)nc1.O=C(O)/C=C\C(=O)O [Example 387, N-(6-{2-[4-(5-Methoxypyridin-2-ylmethyl)piperazine-1-carbonyl]-1-methyl-1H-indol-5-yloxy}pyridin-3-yl)-N-methyl-4-trifluoromethyl-benzamide maleate] | 143 to 144 °C |
| CCCOc1ccc(CN2CCN(C(=O)c3cc4cc(Oc5ccc(N(C)C(=O)c6ccc(Cl)c(Cl)c6)cn5)ccc4n3C)CC2)cc1.O=C(O)/C=C\C(=O)O [Example 370, 3,4-Dichloro-N-methyl-N-(6-{1-methyl-2-[4-(4-propoxybenzyl)-piperazine-1-carbonyl]-1H-indol-5-yloxy}pyridin-3-yl)benzamide maleate] | 163 to 164 °C |
| Br.Cn1c(C(=O)N2CCN(Cc3ccc(C#N)cc3)CC2)cc2ccc(Oc3ccc(NC(=O)c4ccc(Cl)c(Cl)c4)cn3)cc21 [Example 263, 3,4-Dichloro-N-(6-{2-[4-(4-cyanobenzyl)piperazine-1-carbonyl]-1-methyl-1H-indol-6-yloxy}pyridin-3-yl)benzamide hydrobromide] | 263.9 to 267.4 °C |
| Br.CCCOc1ccc(CN2CCN(C(=O)c3cc4cc(Oc5ccc(NC(=O)c6ccc(Cl)c(Cl)c6)cn5)ccc4n3C)CC2)cc1 [Example 369, 3,4-Dichloro-N-(6-{1-methyl-2-[4-(4-propoxybenzyl)piperazine-1-carbonyl]-1H-indol-5-yloxy}pyridin-3-yl)benzamide hydrobromide] | 249 to 252 °C (dec.) |
| Br.CC(C)Oc1ccc(CN2CCN(C(=O)c3cc4ccc(Oc5ccc(NC(=O)c6ccc(Cl)c(Cl)c6)cn5)cc4n3C)CC2)c(F)c1 [Example 265, 3,4-Dichloro-N-(6-{2-[4-(2-fluoro-4-isopropoxybenzyl)piperazine-1-carbonyl]-1-methyl-1H-indol-6-yloxy}pyridin-3-yl)benzamide hydrobromide] | 242.5 to 246.7 °C |
| Cn1c(C(=O)N2CCN(Cc3ccccn3)CC2)cc2cccc(Oc3ccc(NC(=O)c4ccc(C(F)(F)F)cc4)cn3)c21.O=C(O)C(=O)O.O=C(O)C(=O)O [Example 243, N-{6-[1-Methyl-2-(4-pyridin-2-ylmethylpiperazine-1-carbonyl)-1H-indol-7-yloxy]pyridin-3-yl}-4-trifluoromethylbenzamide dioxalate] | 121 to 123 °C |
| Br.Br.Cn1c(C(=O)N2CCN(Cc3cccnc3)CC2)cc2cc(Oc3ccc(NC(=O)c4ccc(C(F)(F)F)cc4)cn3)ccc21 [Example 558, N-{6-[1-Methyl-2-(4-pyridin-3-ylmethylpiperazine-1-carbonyl)-1H-indol-5-yloxy]pyridin-3-yl}-4-trifluoromethylbenzamide dihydrobromide] | 201 to 204 °C |
| Cl.Cn1c(C(=O)N2CCN(Cc3ccc(OCC(F)F)cc3)CC2)cc2ccc(Oc3ncc(NC(=O)c4ccc(C(F)(F)F)cc4)cn3)cc21 | 251.4 to 253.5 °C |
| CCCOc1ccc(CN2CCN(C(=O)c3cc4ccc(Oc5ccc(NC(=O)c6ccc(C(F)(F)F)cc6F)cn5)cc4n3C)CC2)cc1.Cl | 264 to 266.3 °C |
| Br.Cn1c(C(=O)N2CCN(Cc3ccc(OCC(F)F)cc3)CC2)cc2cc(Oc3ccc(NC(=O)c4ccc(C(F)(F)F)cc4)cn3)ccc21 [Example 462, N-[6-(2-{4-[4-(2,2-Difluoroethoxy)benzyl]piperazine-1-carbonyl}-1-methyl-1H-indol-5-yloxy)pyridin-3-yl]-4-trifluoromethyl-benzamide hydrobromide] | 229.1 to 230.8 °C |
| Br.CN(c1ccc(Oc2ccc3cc(C(=O)N4CCN(Cc5ccc(OCC(F)(F)F)cc5)CC4)n(C)c3c2)nc1)S(=O)(=O)c1ccccc1 [Example 30, N-Methyl-N-[6-(1-methyl-2-{4-[4-(2,2,2-trifluoroethoxy)benzyl]-piperazine-1-carbonyl}-1H-indol-6-yloxy)pyridin-3-yl]benzene-sulfonamide hydrobromide] | 234.6 to 235.2 °C |
| Br.Br.CN(C(=O)c1ccc(C(F)(F)F)cc1)c1ccc(Oc2ccc3c(c2)cc(C(=O)N2CCN(Cc4ccncc4)CC2)n3C)nc1 [Example 548, N-Methyl-N-{6-[1-methyl-2-(4-pyridin-4-ylmethylpiperazine-1-carbonyl)-1H-indol-5-yloxy]pyridin-3-yl}-4-trifluoromethyl-benzamide dihydrobromide] | 196 to 198 °C |
| Br.CC(C)CN1CCN(C(=O)c2cc3cc(Oc4ccc(NC(=O)c5ccc(Cl)c(Cl)c5)cn4)ccc3n2C)CC1 [Example 567, 3,4-Dichloro-N-{6-[2-(4-isobutylpiperazine-1-carbonyl)-1-methyl-1H-indol-5-yloxy]pyridin-3-yl}benzamide hydrobromide] | 251 to 254 °C |
| Br.CCOc1ccc(CN2CCN(C(=O)c3cc4cc(Oc5cc(C)c(NC(=O)c6ccc(Cl)c(Cl)c6)cn5)ccc4n3C)CC2)cc1 [Example 364, 3,4-Dichloro-N-(6-{2-[4-(4-ethoxybenzyl)piperazine-1-carbonyl]-1-methyl-1H-indol-5-yloxy}-4-methylpyridin-3-yl)benzamide hydrobromide] | 197 to 199 °C |
